Earlier results on one molecule are cited in patent US20110236503A1, “Topical Skincare Composition” (COSMALABS INTERNATIONAL, LLC, priority 2010, published 2011).

The structures appear in SMILES notation.

The conditions of the data set: topical composition having 5% benzoyl peroxide vs erythromycin and clindamycin formulations.

With `O=C(OOC(=O)c1ccccc1)c1ccccc1` [benzoyl peroxide, Benzoyl peroxide], the “effectiveness for acne compared with other topical antimicrobials” value was “at least as effective for acne as erythromycin and clindamycin formulations”.
